In patent US8691993B2, “Piperidinyl naphthylacetic acids” (Hoffman-La Roche Inc., priority 2011, dated 2014):

Biological target: human CRTH2 receptor (Homo sapiens (Human), UniProt Q9Y5Y4)
Assay: Calcium Flux Assay Using Fluorometric Imaging Plate Reader (FLIPR)
Assay type: cell-based
Conditions: CHO-K1 cells transfected with G-alpha 16 and human CRTH2 receptor; DK-PGD2 ligand; 1 hour compound incubation
Experimental: Calcium Flux Assay Using Fluorometric Imaging Plate Reader (FLIPR)
CHO-K1 cells previously transfected with G-alpha 16 were subsequently transfected with the human CRTH2 receptor and the neomycin resistance gene. Following selection in 800 μg/mL G418 (geneticin), individual clones were assayed for their receptor expression based on staining with an anti human CRTH2 IgG, followed by assaying for their response to 13,14-dihydro-15-keto Prostaglandin D2 (DK-PDG2) (ligand) in the Ca^2+ Flux assay. Positive clones were then cloned by limiting dilution cloning. The transfected cells were cultured in Ham's F-12 medium supplemented with 10% fetal bovine serum, 2 mM glutamine, 100 U/mL penicillin/100 μg/mL streptomycin, 200 μg/mL hygromycin B, and 800 μg/mL G418 (geneticin). Cells were harvested with trypsin-EDTA (trypsin-ethylenediaminetetraacetic acid) and counted using ViaCount® reagent (from Guava Technologies, Inc. which contains two DNA-binding dyes that enable the reagent user to distinguish between viable and non-viable cells). The cell suspension volume was adjusted to 2.5×10^5 cells/mL with complete growth media. Aliquots of 50 μL were dispensed into BD Falcon™ 384 well black/clear microplates (from BD Biosciences, a division of Becton, Dickinson and Company) and the microplates were placed in a 37° C. CO2 incubator overnight. The following day, the microplates were used in the assay.
Loading Buffer containing dye (from the FLIPR® Calcium 3 Assay Kit from Molecular Devices, a division of MDS Analytical Technologies and MDS Inc.) was prepared by dissolving the contents of one bottle into 200 mL Hank's Balanced Salt Solution containing 20 mM HEPES (4-(2-hydroxyethyl)-1-piperazineethanesulfonic acid) and 2.5 mM probenecid. Growth media was removed from the cell plates and 25 μL of Hank's Balanced Salt Solution (HBSS) containing 20 mM HEPES, 0.05% BSA and 2.5 mM probenecid was added to each well followed by 25 μL of diluted dye using a Multidrop dispenser. The plates were then incubated for 1 hour at 37° C.
During the incubation, test compound plates were prepared by adding 90 μL of HBSS/20 mM HEPES/0.005% BSA buffer to the 2 μL of serial diluted compounds. To prepare serial diluted compounds, 20 mM stocks of compounds were dissolved in 100% DMSO. The compound dilution plate was set up as follows: well #1 received 5 μL of compound plus 10 μL of DMSO. Wells 2-10 received 10 μL of DMSO. 5 μL was mixed and transferred from well #1 into well #2. 1:3 serial dilutions were continued out 10 steps. 2 μL of diluted compound was transferred into duplicate wells of a 384 well “assay plate” and then 90 μL of buffer was added.
After incubation, both the cell and “assay plate” plates were brought to the fluorometric imaging plate reader (FLIPR®) and 20 μL of the diluted compounds were transferred to the cell plates by the FLIPR®. Plates were then incubated for 1 hour at room temperature. After the 1 hour incubation, plates were returned to the FLIPR® and 20 μL of 4.5× concentrated ligand was added to the cell plates. During the assay, fluorescence readings were taken simultaneously from all 384 wells of the cell plate every 1.5 seconds. Five readings were taken to establish a stable baseline, then 20 μL of sample was rapidly (30 μL/sec) and simultaneously added to each well of the cell plate. The fluorescence was continuously monitored before, during and after sample addition for a total elapsed time of 100 seconds. Responses (increase in peak fluorescence) in each well following agonist addition were determined. The initial fluorescence reading from each well, prior to ligand stimulation, was used as a zero baseline value for the data from that well. The responses were expressed as % inhibition of the buffer control. […]

human CRTH2 receptor, sequence (Q9Y5Y4 whole entry): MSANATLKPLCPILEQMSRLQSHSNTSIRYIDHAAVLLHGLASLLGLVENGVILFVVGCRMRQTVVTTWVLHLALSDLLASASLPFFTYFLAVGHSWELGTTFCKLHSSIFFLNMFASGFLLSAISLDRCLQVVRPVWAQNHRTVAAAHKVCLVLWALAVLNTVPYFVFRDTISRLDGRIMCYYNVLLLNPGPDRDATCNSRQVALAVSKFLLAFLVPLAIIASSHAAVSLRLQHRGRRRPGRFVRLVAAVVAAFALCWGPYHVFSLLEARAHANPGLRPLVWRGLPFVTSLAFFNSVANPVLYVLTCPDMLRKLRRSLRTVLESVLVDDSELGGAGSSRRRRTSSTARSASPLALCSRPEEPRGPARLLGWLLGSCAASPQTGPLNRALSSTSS

Structure (SMILES): O=C(O)Cc1cc(C2CCN(S(=O)(=O)c3ccccc3Cl)CC2)c2cc(F)ccc2c1 [Example 6, {4-[1-(2-Chloro-benzenesulfonyl)-piperidin-4-yl]-6-fluoro-naphthalen-2-yl}-acetic acid]
- IC50: 2.5 nM

Structure (SMILES): O=C(O)Cc1cc(C2CCN(S(=O)(=O)c3ccccc3)CC2)c2cc(F)ccc2c1 [Example 1, [4-(1-Benzenesulfonyl-piperidin-4-yl)-6-fluoro-naphthalen-2-yl]-acetic acid]
- IC50: 18 nM

Structure (SMILES): O=C(O)Cc1cc(C2CCN(S(=O)(=O)c3ccccn3)CC2)c2cc(F)ccc2c1 [Example 3, {6-Fluoro-4-[1-(pyridine-2-sulfonyl)-piperidin-4-yl]-naphthalen-2-yl}-acetic acid]
- IC50: 104 nM

Structure (SMILES): Cc1ccc(S(=O)(=O)N2CCC(c3cc(CC(=O)O)cc4ccc(F)cc34)CC2)cc1 [Example 2, {6-Fluoro-4-[1-(toluene-4-sulfonyl)-piperidin-4-yl]-naphthalen-2-yl}-acetic acid]
- IC50: 53 nM

Structure (SMILES): O=C(O)Cc1cc(C2CCN(S(=O)(=O)c3cc(Cl)cc(Cl)c3)CC2)c2cc(F)ccc2c1 [Example 12, {4-[1-(3,5-Dichloro-benzenesulfonyl)-piperidin-4-yl]-6-fluoro-naphthalen-2-yl}-acetic acid]
- IC50: 404 nM

Structure (SMILES): O=C(O)Cc1cc(C2CCN(S(=O)(=O)c3cc(Cl)ccc3Cl)CC2)c2cc(F)ccc2c1 [Example 10, {4-[1-(2,5-Dichloro-benzenesulfonyl)-piperidin-4-yl]-6-fluoro-naphthalen-2-yl}-acetic acid]
- IC50: 3.5 nM

Structure (SMILES): CS(=O)(=O)c1cccc(S(=O)(=O)N2CCC(c3cc(CC(=O)O)cc4ccc(F)cc34)CC2)c1 [Example 9, {6-Fluoro-4-[1-(3-methanesulfonyl-benzenesulfonyl)-piperidin-4-yl]-naphthalen-2-yl}-acetic acid]
- IC50: 1150 nM

Structure (SMILES): O=C(O)Cc1cc(C2CCN(S(=O)(=O)c3ccc(Cl)cc3)CC2)c2cc(F)ccc2c1 [Example 8, {4-[1-(4-Chloro-benzenesulfonyl)-piperidin-4-yl]-6-fluoro-naphthalen-2-yl}-acetic acid]
- IC50: 42 nM

Structure (SMILES): O=C(O)Cc1cc(C2CCN(S(=O)(=O)c3ccncc3)CC2)c2cc(F)ccc2c1 [Example 5, {6-Fluoro-4-[1-(pyridine-4-sulfonyl)-piperidin-4-yl]-naphthalen-2-yl}-acetic acid]
- IC50: 898 nM

Structure (SMILES): O=C(O)Cc1cc(C2CCN(S(=O)(=O)c3ccc(Cl)cc3Cl)CC2)c2cc(F)ccc2c1 [Example 11, {4-[1-(2,4-Dichloro-benzenesulfonyl)-piperidin-4-yl]-6-fluoro-naphthalen-2-yl}-acetic acid]
- IC50: 4.8 nM

Structure (SMILES): O=C(O)Cc1cc(C2CCN(S(=O)(=O)c3cc(C(F)(F)F)cc(C(F)(F)F)c3)CC2)c2cc(F)ccc2c1 [Example 13, {4-[1-(3,5-Bis-trifluoromethyl-benzenesulfonyl)-piperidin-4-yl]-6-fluoro-naphthalen-2-yl}-acetic acid]
- IC50: 1350 nM

Structure (SMILES): O=C(O)Cc1cc(C2CCN(S(=O)(=O)c3cccc(Cl)c3)CC2)c2cc(F)ccc2c1 [Example 7, {4-[1-(3-Chloro-benzenesulfonyl)-piperidin-4-yl]-6-fluoro-naphthalen-2-yl}-acetic acid]
- IC50: 95 nM

Structure (SMILES): O=C(O)Cc1cc(C2CCN(S(=O)(=O)c3cccnc3)CC2)c2cc(F)ccc2c1 [Example 4, {6-Fluoro-4-[1-(pyridine-3-sulfonyl)-piperidin-4-yl]-naphthalen-2-yl}-acetic acid]
- IC50: 1740 nM
